Our source for the IC50 values is US11702422B2, “Imidazopyridazines as modulators of IL-17” (Janssen Pharmaceutica NV, priority 2020, dated 2023).

Assay [1] concerns the target IL-17A(FLAG-Tagged): IL-17RA(His-Tagged) (Homo sapiens, UniProt Q16552, K93Q). The assay can be described thus: IL-17A(FLAG-Tagged): IL-17RA(His-Tagged) Binding Disruption Eu-HTRF Assay. Particulars: IL-17A/IL-17RA binding disruption, simple average if tested more than once. The source says: IL-17A(FLAG-Tagged): IL-17RA(His-Tagged) Binding Disruption Eu-HTRF Assay
An antibody directed against the FLAG tag of IL-17A (SEQ ID NO:1) is labeled with the HTRF donor chromophore (Europium-cryptate). IL-17A is present as a dimer that is “locked into” this quaternary structure due to the formation of loop-spanning […] disulfide bridges. The construct of IL-17RA used in the assay excludes the […] portion of the receptor and is fused to a C-terminal 10×His tag (SEQ ID NO:2). An antibody directed against the His tag of the IL-17RA chimera is labeled with the HTRF acceptor chromophore (“D2”). The fluorescence-resonance energy transfer (FRET) depends on the vicinity of the donor chromophore to the acceptor, and interruption of the binding between the IL-17A and IL-17RA causes the reduction/loss of FRET. Therefore, this assay allows to evaluate the compound effect on the binding IL-17A and IL-17RA by monitoring the fluorescence intensity of donor vs acceptor. The assay is run as described below.
40 nl of 2-fold serial diluted compound solution for total 22 dilution points is added into each well of a 1536-well, white, low-volume, non-binding plate (Greiner #782904), then 2 μl of FLAG tagged IL-17A at 2× final concentration (2.5 nM) in solution of PBS+0.01% Triton-X100 is added to each well. The assay plate is briefly centrifuged then incubated for 1 h at rt. A mixed solution is prepared containing 2×5 nM 10HIS×IL-17RA, 2×2.5 nM Eu-anti-FLAG (CISBIO), 2×5 nM D2-anti-HIS (CISBIO) in PBS+0.01% Triton-X100+200 mM Potassium Fluoride (Sigma 60238) and 2 μl of mix is added to each well of the assay plate. The plate is briefly centrifuged then incubated for 2 h at rt. The HTRF intensities at the wavelength of donor (620 nm) and acceptor (665 nm) are measured using BMG Pherastar. The ratio between intensities at two wavelengths is calculated and plotted against the compound concentration and the data is fitted to a one-site competition model to yield IC50 of the compound.

The test system of assay [2] is IL-17A-induced G-CSF production in human normal keratinocyte (NHK). Kind of assay: NHK Assay: IL-17A-induced G-CSF production in human normal keratinocytes. The format is cell-based. Particulars: 24 h, adult normal human keratinocytes, IL-17A 5 ng/mL, simple average if tested more than once. As for the experimental part: IL-17A acts directly on keratinocytes through binding to dimeric receptor IL-17RA/RC and drives the production of a number of inflammatory mediators known to be elevated in psoriasis lesional tissue. IL-17A small molecule inhibitors that block the IL-17A to interact with IL-17R would inhibit the IL-17A signaling in its targeted cells such as keratinocytes. The compound functional activity is evaluated for its impact on IL-17A-induced G-CSF production in human normal keratinocyte (NHK).
Adult normal human keratinocytes are cultured in keratinocyte growth medium (Lonza) in a flask till reaching ˜ 90% confluence, then cells are transferred to a 384-well plate at density of 3000-4000 cell/well. Recombinant human IL-17A (Gibco PHC9174) is pre-incubated with titrated compound or DMSO for 1 h at rt then added to the cell culture plate. The final concentration of IL-17A is 5 ng/mL and DMSO is 0.2%, in the culture containing 5% FBS. Cells are cultured/treated for 24 h at 37° C. Supernatants are collected and G-CSF production is measured through HTRF technology using Human G-CSF Kit (CisBio). G-CSF concentration was extrapolated from the standard curve and IC50 is determined using GraphPad Prism. Cell viability is also evaluated using CellTiter-Glo kit (Promega) and effect of compound on cell viability is compared to DMSO control.

UniProt Q16552, sequence (Q16552 with tags, fused parts or gaps K93Q): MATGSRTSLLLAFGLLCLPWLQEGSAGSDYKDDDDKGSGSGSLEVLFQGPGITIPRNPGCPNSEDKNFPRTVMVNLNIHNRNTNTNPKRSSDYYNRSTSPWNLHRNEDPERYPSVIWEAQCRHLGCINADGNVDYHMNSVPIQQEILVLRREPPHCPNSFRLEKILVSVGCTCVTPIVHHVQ

In the case of `CC(C)C(NC(=O)CC1CC(F)(F)C1)c1cnn2cc([C@@H](NC(=O)c3nonc3OCC(F)F)C3CCC(F)(F)CC3)nc2c1` (stereo in doubt) [Example 514, N—((S)-(7-((S*)-1-(2-(3,3-Difluorocyclobutyl)acetamido)-2-methylpropyl)imidazo[1,2-b]pyridazin-2-yl)(4,4-difluorocyclohexyl)methyl)-4-(2,2-difluoroethoxy)-1,2,5-oxadiazole-3-carboxamide], the IC50 was 87 nM in assay [1] and 42 nM in assay [2] (Homo sapiens, Keratinocyte).

With `O=C(CCC(F)(F)F)N[C@@H](c1cnn2cc([C@@H](NC(=O)c3ccnc(CC(F)(F)F)c3)C3CCC(F)(F)CC3)nc2c1)C1CC1` [Example 74, N—((S)-(7-((R)-Cyclopropyl(4,4,4-trifluorobutanamido)methyl)imidazo[1,2-b]pyridazin-2-yl)(4,4-difluorocyclohexyl)methyl)-2-(2,2,2-trifluoroethyl)isonicotinamide], the half-maximal inhibitory concentration (IC50) came out at 120 nM in assay [1] and 58 nM in assay [2] (Homo sapiens, Keratinocyte).

As for `N#CC1(C(NC(=O)CC2CC(F)(F)C2)c2cnn3cc([C@@H](NC(=O)c4nonc4C4CC4)C4CCC(F)(F)CC4)nc3c2)CC1` (single isomer, unassigned) [Example 429, N—((S)-(7-((R*)-(1-Cyanocyclopropyl)(2-(3,3-difluorocyclobutyl)acetamido)methyl)imidazo[1,2-b]pyridazin-2-yl)(4,4-difluorocyclohexyl)methyl)-4-cyclopropyl-1,2,5-oxadiazole-3-carboxamide], the values for the IC50 in assay [1] and in assay [2] were 2000 nM and > 20000 nM, respectively.

As for `[2H]C([2H])([2H])n1nccc1C(=O)N[C@H](c1cn2ncc(C(NC(=O)CC3CC(F)(F)C3)C3CCC3)cc2n1)C1CCC(F)(F)CC1` (single isomer, unassigned) [Example 497, N—((S)-(7-((R*)-Cyclobutyl(2-(3,3-difluorocyclobutyl)acetamido)methyl)imidazo[1,2-b]pyridazin-2-yl)(4,4-difluorocyclohexyl)methyl)-1-(methyl-d3)-1H-pyrazole-5-carboxamide], the half-maximal inhibitory concentration (IC50) in assay [1] was 91 nM; in assay [2] (Homo sapiens, Keratinocyte) it was 150 nM.

For `O=C(CCC(F)(F)F)N[C@@H](c1cnn2cc([C@@H](NC(=O)c3nocc3OCCF)C3CCC(F)(F)CC3)nc2c1)C1CC1` [Example 376, N—((S)-(7-((R)-Cyclopropyl(4,4,4-trifluorobutanamido)methyl)imidazo[1,2-b]pyridazin-2-yl)(4,4-difluorocyclohexyl)methyl)-4-(2-fluoroethoxy)isoxazole-3-carboxamide], the IC50 came out at 79 nM in assay [1] and 280 nM in assay [2] (Homo sapiens, Keratinocyte).

As to `Cc1nonc1C(=O)N[C@H](c1cn2ncc([C@H](NC(=O)[C@@]34C[C@@H](F)[C@@H]3C4)C3CC3)cc2n1)C1CCC(F)(F)CC1` (relative stereo) [Example 340, N—((S)-(7-((R)-Cyclopropyl((1S*,3R*,4R*)-3-fluorobicyclo[2.1.0]pentane-1-carboxamido)methyl)imidazo[1,2-b]pyridazin-2-yl)(4,4-difluorocyclohexyl)methyl)-4-methyl-1,2,5-oxadiazole-3-carboxamide], the half-inhibitory concentration (IC50) in assay [1] is 8600 nM; in assay [2] (Homo sapiens, Keratinocyte), > 20000 nM.

On to `CC(C)n1nccc1C(=O)N[C@H](c1cn2ncc([C@H](NC(=O)CO[C@H](C)C(F)(F)F)C3CC3)cc2n1)C1CCC(F)(F)CC1` (single isomer, unassigned) [Example 311], for which the IC50 in assay [1] stood at 210 nM; in assay [2] (Homo sapiens, Keratinocyte), 330 nM.

In the case of `Cc1nonc1C(=O)N[C@H](c1cn2ncc([C@H](NC(=O)CCC(C)(F)F)C3CC3)cc2n1)C1CCC(F)(F)CC1` [Example 259, N—((S)-(7-((R)-Cyclopropyl(4,4-difluoropentanamido)methyl)imidazo[1,2-b]pyridazin-2-yl)(4,4-difluorocyclohexyl)methyl)-4-methyl-1,2,5-oxadiazole-3-carboxamide], the half-inhibitory concentration (IC50) in assay [1] is 120 nM; in assay [2] (Homo sapiens, Keratinocyte), 620 nM.

With `Cc1nocc1C(=O)N[C@H](c1cn2ncc([C@H](NC(=O)CC(C)C(F)(F)F)C3CC3)cc2n1)C1CCC(F)(F)CC1` (single isomer, unassigned) [Example 123, N—((S)-(7-((R)-Cyclopropyl((R*)-4,4,4-trifluoro-3-methylbutanamido)methyl)imidazo[1,2-b]pyridazin-2-yl)(4,4-difluorocyclohexyl)methyl)-3-methylisoxazole-4-carboxamide], the results for the 50% inhibitory concentration (IC50) in assay [1] and in assay [2] were 55 nM and 130 nM, respectively.

In turn, `Cc1nonc1C(=O)N[C@H](c1cn2ncc(C(NC(=O)CCC(F)(F)F)C(F)F)cc2n1)C1CCC(F)(F)CC1` (single isomer, unassigned) [Example 515, N—((S)-(7-((S*)-2,2-Difluoro-1-(4,4,4-trifluorobutanamido)ethyl)imidazo[1,2-b]pyridazin-2-yl)(4,4-difluorocyclohexyl)methyl)-4-methyl-1,2,5-oxadiazole-3-carboxamide] showed a half-inhibitory concentration (IC50) in assay [2] of 140 nM.

For the compound `Cc1nonc1C(=O)N[C@H](c1cn2ncc(C(NC(=O)CC3CC(F)(F)C3)C(C)(C)O)cc2n1)C1CCC(F)(F)CC1` (single isomer, unassigned) [Example 443, N—((S)-(7-((S*)-1-(2-(3,3-Difluorocyclobutyl)acetamido)-2-hydroxy-2-methylpropyl)imidazo[1,2-b]pyridazin-2-yl)(4,4-difluorocyclohexyl)methyl)-4-methyl-1,2,5-oxadiazole-3-carboxamide], the IC50 in assay [2] came to 520 nM.

For `Cc1nonc1C(=O)N[C@H](c1cn2ncc([C@H](NC(=O)CCCC#N)C3CC3)cc2n1)C1CCC(F)(F)CC1` [Example 351, N—((S)-(7-((R)-(4-Cyanobutanamido)(cyclopropyl)methyl)imidazo[1,2-b]pyridazin-2-yl)(4,4-difluorocyclohexyl)methyl)-4-methyl-1,2,5-oxadiazole-3-carboxamide], the half-maximal inhibitory concentration (IC50) in assay [1] worked out at 2600 nM.

The compound `CC(C)(C)Oc1nonc1C(=O)N[C@H](c1cn2ncc([C@H](NC(=O)CC3CC(F)(F)C3)C3CC3)cc2n1)C1CCC(F)(F)CC1` [Example 392, 4-(tert-Butoxy)-N—((S)-(7-((R)-cyclopropyl(2-(3,3-difluorocyclobutyl)acetamido)methyl)imidazo[1,2-b]pyridazin-2-yl)(4,4-difluorocyclohexyl)methyl)-1,2,5-oxadiazole-3-carboxamide] gave an IC50 in assay [2] (Homo sapiens, Keratinocyte) of 37 nM.

With `Cc1nonc1C(=O)N[C@H](c1cn2ncc([C@H](NC(=O)[C@H]3CNC[C@@H]3C(F)(F)F)C3CC3)cc2n1)C1CCC(F)(F)CC1` (relative stereo) [Example 355, N—((S)-(7-((R)-Cyclopropyl((trans-3R*,4R*)-4-(trifluoromethyl)pyrrolidine-3-carboxamido)methyl)imidazo[1,2-b]pyridazin-2-yl)(4,4-difluorocyclohexyl)methyl)-4-methyl-1,2,5-oxadiazole-3-carboxamide], the half-maximal inhibitory concentration (IC50) in assay [1] worked out at 19000 nM.

In assay [1], `O=C(CCC(F)(F)F)NC(c1cnn2cc([C@@H](NC(=O)c3ccccc3)C3CCC(F)(F)CC3)nc2c1)C1CC1` (single isomer, unassigned) [Example 13, N—((S)-(7-((S*)-Cyclopropyl(4,4,4-trifluorobutanamido)methyl)imidazo[1,2-b]pyridazin-2-yl)(4,4-difluorocyclohexyl)methyl)benzamide] showed an IC50 of 7600 nM.
